We go through ten molecules from PubChem BioAssay (NCI).

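Results reflect a 48-hour exposure of cells in 96-well plates to compound at five concentrations. At the TGI there is no net growth.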

Test systems include CAKI-1 renal; EKVX NSCLC; HCC-2998 colon; HOP-92 NSCLC; MALME-3M melanoma; MDA-MB-231 breast; MDA-N; NCI-H226 lung; OVCAR-4 ovarian; PC-3 prostate; SK-MEL-5 melanoma; SN12C renal; SR leukemia.
Common to all, as to assay: NCI tumour cell line growth inhibition, 48 h

Regarding `COc1cc2c(cc1OC)C(=O)N(c1ccc(OCCN3CCCC3)cc1)C2=O`, the TGI in the assay with CAKI-1 renal, with EKVX NSCLC, with HCC-2998 colon, in the assay with HOP-92 NSCLC, in the assay with MALME-3M melanoma and in the assay with MDA-MB-231 breast was over 100 µM throughout. The TGI with MDA-N, with NCI-H226 lung, in the assay on OVCAR-4 ovarian, with PC-3 prostate, with SK-MEL-5 melanoma and in the assay on SN12C renal was over 100 µM each time. The same molecule gave a TGI with SR leukemia of over 100 µM.
In the case of `CC(C)[C@@H]1NC(=O)[C@@H]2N=C(O[C@H]2C)[C@H](C(C)C)NC(=O)C2N=C1O[C@H]2C`, the TGI in the assay with CAKI-1 renal, with EKVX NSCLC, in the assay with HCC-2998 colon, with HOP-92 NSCLC, with MALME-3M melanoma and with MDA-MB-231 breast was over 100 µM throughout. Moreover, the TGI in the assay with MDA-N, with NCI-H226 lung, in the assay with OVCAR-4 ovarian, in the assay with PC-3 prostate, with SK-MEL-5 melanoma and with SN12C renal was over 100 µM throughout. In addition, the TGI in the assay on SR leukemia is over 100 µM.
As for `Cc1cc(=O)n2nc(CSc3nnc(Sc4cc(O)ccc4O)s3)sc2n1`, the TGI in the assay on CAKI-1 renal is over 100 µM; in the assay with EKVX NSCLC it was over 100 µM; in the assay with HCC-2998 colon, over 100 µM; in the assay on HOP-92 NSCLC it was over 100 µM; with MALME-3M melanoma, over 100 µM; in the assay with MDA-MB-231 breast, 97.4 µM. The TGI in the assay with MDA-N is 32.8 µM; with NCI-H226 lung, over 100 µM; with OVCAR-4 ovarian, over 100 µM; in the assay with PC-3 prostate, over 100 µM; in the assay with SK-MEL-5 melanoma it was over 100 µM; with SN12C renal, over 100 µM. In the assay on SR leukemia, this molecule displayed a TGI of over 100 µM.
In the case of `CCC1CN2CCc3c([nH]c4ccccc34)[C@@](C(=O)OC)(c3cc4c(cc3OC)N(C)C3C(O)(C(=O)OC)C(C(=O)OC)C5(CC)C=CCN6CCC43C65)C[C@@H](C2)[C@@H]1C(C)(C)C` (stereo not given in full), the TGI in the assay with CAKI-1 renal was over 10 µM; in the assay on EKVX NSCLC it was over 10 µM; in the assay on HCC-2998 colon, 1.52 µM; in the assay on HOP-92 NSCLC, 8.19 µM; in the assay on MALME-3M melanoma it was 2.95 µM; in the assay on MDA-MB-231 breast, 3.42 µM. Also, the TGI in the assay on MDA-N is 0.424 µM; with NCI-H226 lung, 0.902 µM; in the assay on OVCAR-4 ovarian, over 10 µM; in the assay with PC-3 prostate, 3.26 µM; in the assay with SK-MEL-5 melanoma, 1.25 µM; in the assay on SN12C renal, 9.93 µM. The molecule also yielded a TGI with SR leukemia of over 6.41 µM.
Take `CCc1cc2c(c3c1CCCC3=O)CC1(C2)Cc2cc(CC)c3c(c2C1)C(=O)CCC3`: the TGI in the assay with CAKI-1 renal, in the assay on EKVX NSCLC, in the assay on HCC-2998 colon, in the assay on HOP-92 NSCLC, in the assay with MALME-3M melanoma and in the assay with MDA-MB-231 breast was over 100 µM in each case. Besides, the TGI in the assay on MDA-N, in the assay with NCI-H226 lung, in the assay on OVCAR-4 ovarian, in the assay on PC-3 prostate, with SK-MEL-5 melanoma and in the assay on SN12C renal was over 100 µM in each case. In the assay on SR leukemia, this molecule came in with a TGI of 75.1 µM.
Regarding `C=CCN1C(=O)CC(=O)N(NC2=NNC3(C(=O)N2)c2ccccc2-c2ccccc23)C1=S`, the TGI in the assay with CAKI-1 renal is over 100 µM; in the assay on EKVX NSCLC it was over 100 µM; with HCC-2998 colon, over 100 µM; in the assay with HOP-92 NSCLC, 61.8 µM; in the assay on MALME-3M melanoma, over 100 µM; in the assay on MDA-MB-231 breast, over 100 µM. For the same molecule, the TGI with MDA-N was over 100 µM; in the assay on NCI-H226 lung, 82.5 µM; in the assay on OVCAR-4 ovarian, over 100 µM; in the assay with PC-3 prostate, over 100 µM; in the assay with SK-MEL-5 melanoma, over 100 µM; with SN12C renal it was over 100 µM. In addition, the TGI in the assay with SR leukemia was determined as 61.1 µM.
Consider `Oc1ccc(SCc2cc(O)ccc2O)cc1`, for which the TGI was 19.7 µM with CAKI-1 renal; 41.7 µM in the assay on EKVX NSCLC; over 68.9 µM in the assay on HCC-2998 colon; over 47.2 µM with HOP-92 NSCLC; 36.2 µM with MALME-3M melanoma; 36.4 µM in the assay on MDA-MB-231 breast. The TGI is 28.6 µM in the assay on MDA-N; 35.5 µM in the assay on NCI-H226 lung; 18.5 µM in the assay with OVCAR-4 ovarian; over 52.7 µM in the assay with PC-3 prostate; 22.5 µM with SK-MEL-5 melanoma; 28.1 µM in the assay on SN12C renal. The same molecule came in with a TGI with SR leukemia of over 100 µM.
`c1ccc(-c2c(-c3[nH]c4ccccc4c3-c3ccccc3)[nH]c3ccccc23)cc1`: the TGI with CAKI-1 renal is 13.8 µM; in the assay with EKVX NSCLC it was 14.1 µM; in the assay with HCC-2998 colon, 3.94 µM; with HOP-92 NSCLC it was 12.2 µM; in the assay with MALME-3M melanoma it was 31.2 µM; in the assay with MDA-MB-231 breast, 13.8 µM. The TGI in the assay on MDA-N was 7.46 µM; with NCI-H226 lung, 25.6 µM; in the assay on OVCAR-4 ovarian, 8.78 µM; in the assay on PC-3 prostate it was 10.6 µM; in the assay on SK-MEL-5 melanoma it was 14.8 µM; in the assay on SN12C renal it was 3.8 µM. The molecule further came in with a TGI with SR leukemia of 7.84 µM.
Consider `COc1cc2c(cc1OC)C(=O)/C(=C/c1ccc(N(C)C)cc1)CC2`, for which the TGI in the assay with CAKI-1 renal, with EKVX NSCLC, in the assay on HCC-2998 colon, with HOP-92 NSCLC, with MALME-3M melanoma and in the assay on MDA-MB-231 breast was over 10 µM in each case. For the same molecule, the TGI in the assay with MDA-N, in the assay with NCI-H226 lung, in the assay with OVCAR-4 ovarian, in the assay on PC-3 prostate, in the assay on SK-MEL-5 melanoma and in the assay with SN12C renal was over 10 µM in each case. The molecule further showed a TGI in the assay with SR leukemia of over 10 µM.
On to `CC(C)=CCc1c2c(c(O)c3c(=O)c4c(oc13)-c1ccc(O)cc1OC4C=C(C)C)C=CC(C)(C)O2` (stereo not given), for which the TGI with CAKI-1 renal turned out to be 34.4 µM; in the assay with EKVX NSCLC, 30.3 µM; in the assay with HCC-2998 colon, 11 µM; in the assay with HOP-92 NSCLC, 20.8 µM; in the assay with MALME-3M melanoma, 34.3 µM; in the assay on MDA-MB-231 breast, 28 µM. Besides, the TGI stood at 27.1 µM in the assay on MDA-N; 40.6 µM in the assay with NCI-H226 lung; 24.8 µM with OVCAR-4 ovarian; 24.7 µM with PC-3 prostate; 28.2 µM with SK-MEL-5 melanoma; 17 µM in the assay with SN12C renal. The TGI with SR leukemia amounted to 16 µM.
